# Source: patent US20210214385A1, “INHIBITORS OF D-AMINO ACID OXIDASE AND USES THEREOF” (SyneuRx International (Taiwan) Corp., priority 2018, published 2021)
# How the values were obtained:
# [1] = Concentration in mouse brain after i.p. administration, HPLC-MS after tannase hydrolysis into gallic acid; format: in vivo, mice
# Protocol: The objective of this experiment was to compare the concentration of Compound 24 and enriched tannic acid in mouse brain after intraperitoneal (i.p.) administration. The enriched tannic acid was prepared by the enrichment method 10 of U.S. Ser. No. 10/105,378. C57BL/6J mice at 14 weeks of age were divided into two groups with 3 mice each. The mice in group I and II were, respectively, i.p. injected with Compound 24 at 30 mg/kg and enriched tannic acid at 15 mg/kg once every two days for three months. The brain sample was collected from each animal at 24 hours after the final i.p. administration and immediately frozen and stored at −70° C. until further use.
# The amounts of Compound 24 and enriched tannic acid in mice brain were analyzed by high performance liquid chromatography-mass spectrometry (HPLC-MS) after enzymatic hydrolysis into gallic acid. Each frozen brain sample was homogenized with 4-fold volume of deionized water (ddH2O) using a handheld tissue homogenizer (BT Lab Systems). […]
# Chromatographic analysis was performed using a Phenomenex Kinetex C8 column (150×4.6 mm, 5 μm). […] Quantitation was done using the selected-ion monitoring chromatogram (SIM) mode to monitor the precursor ion of m/z 169 for gallic acid and m/z 137 for 4-hydroxybenzoic acid as an internal standard. […]
# [2] = target: human D-amino acid oxidase (hDAAO) (Homo sapiens, UniProt P14920); assay: In vitro measurement of human D-amino acid oxidase (hDAAO) activity, D-Serine substrate, Amplex Red fluorescence; format: biochemical
# Chain of human D-amino acid oxidase (hDAAO) (P14920 whole entry): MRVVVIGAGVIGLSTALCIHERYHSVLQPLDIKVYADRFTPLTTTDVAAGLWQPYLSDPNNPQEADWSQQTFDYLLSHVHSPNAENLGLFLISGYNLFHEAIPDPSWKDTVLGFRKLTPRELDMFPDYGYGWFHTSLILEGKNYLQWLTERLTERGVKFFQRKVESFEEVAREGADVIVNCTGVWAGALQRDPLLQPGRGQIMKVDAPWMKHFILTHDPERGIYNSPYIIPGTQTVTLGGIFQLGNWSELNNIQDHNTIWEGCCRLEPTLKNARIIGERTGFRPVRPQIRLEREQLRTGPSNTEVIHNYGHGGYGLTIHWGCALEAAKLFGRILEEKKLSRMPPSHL
# [3] = Log P, n-octanol/water partition coefficient, HPLC; format: physicochemical
# Protocol: The sample compounds tested in the log P experiments included enriched tannic acid (prepared by the enrichment method 10 of U.S. Ser. No. 10/105,378), compounds 21, 24, 27, 46, and 56. First, n-Octanol and water was saturated with each other to achieve partition equilibrium and the two phases were separated for further use. Sample compounds were dissolved in water and n-octanol phase, respectively. Both phases were mixed by vertical rotation movement. After the water and n-octal phases reached equilibrium state, both phases were analyzed to determine the concentrations of the sample compounds for the determination of log P values. All samples were performed in a Shimadzu CBM-20A FfPLC system. The chromatographic separation was carried out on a 5 μm, Kinetex C18 100 Å LC column (100×4.6 mm). The mobile phase was 0.1% formic acid in water and acetonitrile/Methanol set as gradient. Flow rate used was 1.2 mL/min. Column was at room temperature 20±5° C.
# The partition coefficient abbreviated P is calculated based on the concentration in n-octanol divided by the concentration in water. The formula of log P is shown below: […]
# in vivo = conditions: C57BL/6J, mouse, po
# MK-801 treated mice = assay: Pre-pulse inhibition in MK-801 treated mice; format: in vivo; conditions: 30 mg/kg oral, MK-801 0.3 mg/kg i.p., male mice
# Protocol: C57BL/6J male mice were group housed under the same condition as described in Example 1. Mice were randomly assigned into three groups, Group 1: vehicle control, Group 2: MK-801, Group 3: Cpd 24 (30 mg/kg)+MK-801. Mice in Group 2-3 received an acute intraperitoneal (i.p.) injection of MK-801 (Sigma-Aldrich USA), a NMDA receptor antagonist, dissolved in normal saline, at 0.3 mg/kg 20 minutes prior to the pre-pulse inhibition test. Each mouse in Group 1-2 and Group 3 received, respectively, an acute oral administration of 65% PEG400 in ddH2O and compound 24 at 30 mg/kg (dissolved with 65% PEG400 in ddH2O) 20 minutes prior to the MK-801 administration.
# Pre-pulse inhibition, using SR-LAB startle apparatus (San Diego Instruments, San Diego, Calif., USA), was used to determine the efficacy of compound 24 on attenuating the MK-801 induced deficit of sensorimotor gating function in mice. Under 65 dB background noise, each session was composed of 5-minutes accumulation period followed by 64 trials in four blocks. The pulse alone (PA) trial was a 40 ms, 120 dB white noise burst. In the prepulse (pp)+pulse trials, a 20 ms white noise prepulse stimuli of 71 dB (pp6), 75 dB (pp10), and 83 dB (pp18) were presented 100 ms before a 40 ms 120 dB pulse. The non-stimulus (NS) trials presented the background noise only. The initial and the last blocks were composed of six PA trials, respectively. Two middle blocks consisted of PA, pp+pulse, and NS trials. These trials were presented pseudo-randomly and separated by intertribal intervals of 15 seconds on average (varying between 10 to 20 s). The percentage of prepulse inhibition was evaluated by the following formula: % PPI=100× [(PA score)−(pp-P score)]/(PA score), where the PA score was the average of the PA value in the middle blocks.
smiles,measurement,setting,value
"O=C(OC[C@H]1O[C@H](OC(=O)c2cc(O)c(O)c(OC(=O)c3cc(O)c(O)c(OC(=O)c4cc(O)c(O)c(O)c4)c3)c2)[C@H](OC(=O)c2cc(O)c(O)c(OC(=O)c3cc(O)c(O)c(OC(=O)c4cc(O)c(O)c(O)c4)c3)c2)[C@@H](OC(=O)c2cc(O)c(O)c(OC(=O)c3cc(O)c(O)c(OC(=O)c4cc(O)c(O)c(O)c4)c3)c2)[C@@H]1OC(=O)c1cc(O)c(O)c(OC(=O)c2cc(O)c(O)c(OC(=O)c3cc(O)c(O)c(O)c3)c2)c1)c1cc(O)c(O)c(OC(=O)c2cc(O)c(O)c(OC(=O)c3cc(O)c(O)c(O)c3)c2)c1 [Compound 24, (2R,3R,4S,5R,6R)-6-(((3-((3,4-dihydroxy-5-((3,4,5-trihydroxybenzoyl)oxy)benzoyl)oxy)-4,5-dihydroxybenzoyl)oxy)methyl)tetrahydro-2H-pyran-2,3,4,5-tetrayl tetrakis(3-((3,4-dihydroxy-5-((3,4,5-trihydroxybenzoyl)oxy)benzoyl)oxy)-4,5-dihydroxybenzoate)]",Concentration (amount per g brain tissue),"[1]; 30 mg/kg i.p. once every two days for three months, 24 hours after final dose",2714.19 ng/g
same,brain concentration relative to enriched tannic acid,[1]; compound 24 at 30 mg/kg vs enriched tannic acid at 15 mg/kg i.p.,more than 9 times
same,IC50,[2],13 nM
same,logP,[3],0.58
same,MTD at 7 day,in vivo,4500 mg/kg
same,pre-pulse inhibition percentage,MK-801 treated mice; 71 dB pre-pulse intensity,moderately increased the inhibition percentage
same,MK-801 induced pre-pulse inhibition deficit,MK-801 treated mice; 75 dB pre-pulse intensity,significantly improved
same,pre-pulse inhibition percentage,MK-801 treated mice; 83 dB pre-pulse intensity,moderately increased the inhibition percentage
